Paper PMC7862291, “Full-length in meso structure and mechanism of rat kynurenine 3-monooxygenase inhibition” (Communications Biology, 2021)
pIC50: −log10 of the molar value. Where “and” joins values, the source holds several entries; their conditions need not be identical. Equal entries are not always repeated.

Tests used:
Rat KMO = target: T1, Rat KMO (Rattus norvegicus, UniProt O88867); assay: Rat KMO enzyme (cell-free) assay, NADPH consumption by absorbance; format: biochemical
T1 construct: The GST-tagged full-length KMO (1-478) baculovirus vector contained a thrombin cleavage site; GST (thrombin cleavage site between GST and KMO) (N, cleaved yes); made in house; host or cells: Spodoptera frugiperda (Sf9), baculovirus
Method: (§1) Human KMO was purchased from Origene and used to assay compounds. Full-length Rat-KMO purified for crystallisation was used to assay compounds. Full-length Rat-KMO-expressing membranes were used for mutant assays (Fig. 4b) only. […] Images were taken using Odyssey CLX (LI-COR Biosciences) and quantified using ImageStudio2.0 (LI-COR Biosciences) software.
(§2) Test compounds were dissolved in DMSO and diluted with assay buffer containing 50 mM HEPES, 2 mM MgCl2, 0.5 mM EGTA, 1 mM DTT, 0.05% Tween20 and 0.005% of antiform SI (pH = about 7.9) to prepare a 4% DMSO solution. […] After 5 min of pre-incubation, reactions were started by adding 10 μL of substrate solution containing 2.4 mM kynurenine and 0.6 mM NADPH. Reactions were run for 90 min at 30 °C, then terminated by adding 5 μL of stop buffer (40 mM maleimide, 2 mM WST-9 and 0.1 mM 1-methoky PMS in water). […] Liposomal assays were performed in the same manner except that the composition of the assay buffer was changed (phosphate-buffered saline, 2 mM MgCl2, 1 mM DTT, 0.05% Tween 20).
(§3) Compound assays were analysed and plotted on graphs using Prism (GraphPad Software Inc. San Diego, CA, USA).

hKMO = target: T2, hKMO (Homo sapiens, UniProt O15229); assay: Human KMO enzyme (cell-free) assay, NADPH consumption by absorbance; format: biochemical
T2 construct: purchased Origene
Method: as §1, §2, §3

[1] = target: T3, HEK293 cells stably expressing human KMO (Homo sapiens, UniProt O15229); assay: Cell-based human KMO inhibition assay (LC/MS of 3-hydroxykynurenine)
T3 construct: expressed in transfected cells
Method: (§4) HEK293 cells stably expressing human or rat KMO were maintained in DMEM containing 10% fetal bovine serum, 50 units/mL penicillin, 50 μg/mL streptomycin and 0.2 mg⁄mL zeocine. […] After 2 overnights, the medium was replaced with 10 μL/well of assay buffer (1 × HBSS containing 20 mM HEPES). Ten microliters per well of the diluted test compounds (final, 0–30 μM, 0.3% DMSO) were added to the respective wells. After ~30 min of pre-incubation at 37 °C, reactions were started by adding 20 μL of substrate solution containing 0.2 mM kynurenine. Reactions were run for 2 h at 37 °C, the assay buffer was discarded and the plate was immediately frozen and stored at −30 °C until LC/MS analysis.
(§5) An 80 µL volume of cold acetonitrile with 2% formic acid was added to the cell pellet in a 384-well plate and centrifuged at 3000 rpm for 10 min at 4 °C. A 40 µL volume of the supernatant was transferred to a new 384-well plate and evaporated to dryness under nitrogen gas at 45 °C. The residue was reconstituted in 100 µL of acetonitrile/water (10:90, v/v) with 0.1% formic acid, and 1 µL was injected into the LC-MS/MS system.
(§6) LC/MS/MS was performed on a Shimadzu UFLC Nexera X2 (Shimadzu Corporation, Japan) and an QTRAP® 5500 LC-MS/MS System (SCIEX, Framingham, USA). Chromatographic separation was performed using an Allure PFP Propyl analytical column (5 µm, 2.1 × 100 mm) maintained at 50 °C. The autosampler temperature was set at 15 °C. The mobile phase consisted of formic acid/water/acetonitrile/methanol (0.5/500/250/250, v/v/v/v) and the flow rate was set at 0.3 mL/min. 3-hydroxykynurenine was eluted from the LC column at a retention time of 1.2 min. The MS system was operated using electrospray ionization (ESI) in positive mode. The optimum conditions were curtain gas, 20 psi; ion spray voltage, 5500 V; heated nebulizer temperature (TEM), 700 °C; nebulizing gas (GS1), 70 psi; and heater gas (GS2), 70 psi. […] Analyst® software (SCIEX, Framingham, USA) was used for system control and MultiQuant™ Software (SCIEX, Framingham, USA) was used for data analysis.
as §3

[2] = target: T4, HEK293 cells stably expressing rat KMO (Rattus norvegicus, UniProt O88867); assay: Cell-based rat KMO inhibition assay (LC/MS of 3-hydroxykynurenine)
T4 construct: expressed in transfected cells
Method: as §4, §5, §6, §3

T4 sequence (O88867 whole entry): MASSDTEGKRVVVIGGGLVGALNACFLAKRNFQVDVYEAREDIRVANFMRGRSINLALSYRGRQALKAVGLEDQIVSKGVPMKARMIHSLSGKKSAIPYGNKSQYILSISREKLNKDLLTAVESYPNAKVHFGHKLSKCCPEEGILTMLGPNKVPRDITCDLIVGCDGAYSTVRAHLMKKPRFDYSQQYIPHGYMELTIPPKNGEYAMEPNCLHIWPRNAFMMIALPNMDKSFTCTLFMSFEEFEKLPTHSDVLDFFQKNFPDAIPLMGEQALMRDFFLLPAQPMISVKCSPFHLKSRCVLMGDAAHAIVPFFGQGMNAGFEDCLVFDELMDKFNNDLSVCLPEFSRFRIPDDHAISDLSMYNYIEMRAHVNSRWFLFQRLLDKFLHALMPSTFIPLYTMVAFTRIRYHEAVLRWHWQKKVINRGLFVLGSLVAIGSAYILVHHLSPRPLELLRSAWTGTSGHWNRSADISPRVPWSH
T1 sequence (O88867 whole entry): as above
T3 sequence (O15229 whole entry): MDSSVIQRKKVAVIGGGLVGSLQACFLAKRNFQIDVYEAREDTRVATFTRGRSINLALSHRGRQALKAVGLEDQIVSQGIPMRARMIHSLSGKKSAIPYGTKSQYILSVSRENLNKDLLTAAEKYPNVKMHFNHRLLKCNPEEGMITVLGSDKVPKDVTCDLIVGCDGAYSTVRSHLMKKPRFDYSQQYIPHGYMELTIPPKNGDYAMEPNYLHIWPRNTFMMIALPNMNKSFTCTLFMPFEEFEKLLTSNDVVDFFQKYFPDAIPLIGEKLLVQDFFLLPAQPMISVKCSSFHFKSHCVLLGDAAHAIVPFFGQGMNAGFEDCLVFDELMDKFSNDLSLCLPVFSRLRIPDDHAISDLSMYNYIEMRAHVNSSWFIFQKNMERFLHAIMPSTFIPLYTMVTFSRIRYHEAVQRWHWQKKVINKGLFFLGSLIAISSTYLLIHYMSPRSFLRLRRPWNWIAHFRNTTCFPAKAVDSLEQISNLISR
T2 sequence (O15229 whole entry): as above

pIC50 (Rat KMO; cell-free enzyme assay, high kynurenine): 6.24 | inhibition rate, Rat-KMO cell-free assay (Figure 1B source data) (Rat KMO; conc 0.03 μM, duplicates): 4.679% and 12.234% | inhibition rate, Rat-KMO cell-free assay (Figure 1B source data) (Rat KMO; conc 0.1 μM, duplicates): 19.657% | inhibition at 0.1 µM (Rat KMO; conc 0.1 μM, duplicates, read-out: inhibition rate, Rat-KMO cell-free assay (Figure 1B source data)): 16% | inhibition rate, Rat-KMO cell-free assay (Figure 1B source data) (Rat KMO; conc 0.3 μM, duplicates): 35.882% | inhibition at 0.3 µM (Rat KMO; conc 0.3 μM, duplicates, read-out: inhibition rate, Rat-KMO cell-free assay (Figure 1B source data)): 39.2% | inhibition rate, Rat-KMO cell-free assay (Figure 1B source data) (Rat KMO; conc 1 μM, duplicates): 64.963% | inhibition at 1 µM (Rat KMO; conc 1 μM, duplicates, read-out: inhibition rate, Rat-KMO cell-free assay (Figure 1B source data)): 63.5% | inhibition rate, Rat-KMO cell-free assay (Figure 1B source data) (Rat KMO; conc 3 μM, duplicates): 78.325% | inhibition at 3 µM (Rat KMO; conc 3 μM, duplicates, read-out: inhibition rate, Rat-KMO cell-free assay (Figure 1B source data)): 81.5% | inhibition rate, Rat-KMO cell-free assay (Figure 1B source data) (Rat KMO; conc 10 μM, duplicates): 86.225% | inhibition at 10 µM (Rat KMO; conc 10 μM, duplicates, read-out: inhibition rate, Rat-KMO cell-free assay (Figure 1B source data)): 85.2% | inhibition rate, Rat-KMO cell-free assay (Figure 1B source data) (Rat KMO; conc 30 μM, duplicates): 94.681% | inhibition at 30 µM (Rat KMO; conc 30 μM, duplicates, read-out: inhibition rate, Rat-KMO cell-free assay (Figure 1B source data)): 95.7% | inhibition rate, Rat-KMO cell-free assay (Figure 1B source data) (Rat KMO; conc 100 μM, duplicates): 91.129% | inhibition at 100 µM (Rat KMO; conc 100 μM, duplicates, read-out: inhibition rate, Rat-KMO cell-free assay (Figure 1B source data)): 88.8% | pIC50 (hKMO; cell-free enzyme assay, high kynurenine, read-out: Human KMO IC50): 6.80 | inhibition rate, Hs-KMO cell-free assay (Figure 1A source data) (hKMO; conc 0.03 μM, duplicates): 13.527% | inhibition at 0.03 µM (hKMO; conc 0.03 μM, duplicates, read-out: inhibition rate, Hs-KMO cell-free assay (Figure 1A source data)): 15.1% | inhibition rate, Hs-KMO cell-free assay (Figure 1A source data) (hKMO; conc 0.1 μM, duplicates): 37.639% | inhibition at 0.1 µM (hKMO; conc 0.1 μM, duplicates, read-out: inhibition rate, Hs-KMO cell-free assay (Figure 1A source data)): 41.4% | inhibition rate, Hs-KMO cell-free assay (Figure 1A source data) (hKMO; conc 0.3 μM, duplicates): 65.813% | inhibition at 0.3 µM (hKMO; conc 0.3 μM, duplicates, read-out: inhibition rate, Hs-KMO cell-free assay (Figure 1A source data)): 66.6% | inhibition rate, Hs-KMO cell-free assay (Figure 1A source data) (hKMO; conc 1 μM, duplicates): 77.715% | inhibition at 1 µM (hKMO; conc 1 μM, duplicates, read-out: inhibition rate, Hs-KMO cell-free assay (Figure 1A source data)): 82.9% | inhibition rate, Hs-KMO cell-free assay (Figure 1A source data) (hKMO; conc 3 μM, duplicates): 95.862% | inhibition at 3 µM (hKMO; conc 3 μM, duplicates, read-out: inhibition rate, Hs-KMO cell-free assay (Figure 1A source data)): 99.1% | inhibition rate, Hs-KMO cell-free assay (Figure 1A source data) (hKMO; conc 10 μM, duplicates): 92.894% | inhibition at 10 µM (hKMO; conc 10 μM, duplicates, read-out: inhibition rate, Hs-KMO cell-free assay (Figure 1A source data)): 97.2% | inhibition rate, Hs-KMO cell-free assay (Figure 1A source data) (hKMO; conc 30 μM, duplicates): 103.928% | inhibition at 30 µM (hKMO; conc 30 μM, duplicates, read-out: inhibition rate, Hs-KMO cell-free assay (Figure 1A source data)): 104% | inhibition rate, Hs-KMO cell-free assay (Figure 1A source data) (hKMO; conc 100 μM, duplicates): 96.422% | inhibition at 100 µM (hKMO; conc 100 μM, duplicates, read-out: inhibition rate, Hs-KMO cell-free assay (Figure 1A source data)): 100% | inhibition at 0.1 µM ([1]; HEK293, conc 0.1 μM, duplicates, read-out: inhibition rate, Hs-KMO cellular assay (Figure 1C source data)): 17% | inhibition at 0.3 µM ([1]; HEK293, conc 0.3 μM, duplicates, read-out: inhibition rate, Hs-KMO cellular assay (Figure 1C source data)): 33.6% | inhibition at 1 µM ([1]; HEK293, conc 1 μM, duplicates, read-out: inhibition rate, Hs-KMO cellular assay (Figure 1C source data)): 60.2% | inhibition at 3 µM ([1]; HEK293, conc 3 μM, duplicates, read-out: inhibition rate, Hs-KMO cellular assay (Figure 1C source data)): 88.1% | inhibition at 10 µM ([1]; HEK293, conc 10 μM, duplicates, read-out: inhibition rate, Hs-KMO cellular assay (Figure 1C source data)): 100% | inhibition at 30 µM ([1]; HEK293, conc 30 μM, duplicates, read-out: inhibition rate, Hs-KMO cellular assay (Figure 1C source data)): 104% | pIC50 ([1]; HEK293 cells expressing human KMO, LC/MS, read-out: Human cell-based assay IC50): 6.24 | inhibition rate, Hs-KMO cellular assay (Figure 1C source data) ([1]; conc 0.03 μM, duplicates): 1.868% and 10.412% | inhibition rate, Hs-KMO cellular assay (Figure 1C source data) ([1]; conc 0.1 μM, duplicates): 14.953% | inhibition rate, Hs-KMO cellular assay (Figure 1C source data) ([1]; conc 0.3 μM, duplicates): 36.860% | inhibition rate, Hs-KMO cellular assay (Figure 1C source data) ([1]; conc 1 μM, duplicates): 55.900% | inhibition rate, Hs-KMO cellular assay (Figure 1C source data) ([1]; conc 3 μM, duplicates): 85.656% | inhibition rate, Hs-KMO cellular assay (Figure 1C source data) ([1]; conc 10 μM, duplicates): 99.963% | inhibition rate, Hs-KMO cellular assay (Figure 1C source data) ([1]; conc 30 μM, duplicates): 103.556% | inhibition at 0.03 µM ([2]; HEK293, conc 0.03 μM, duplicates, read-out: inhibition rate, Rat-KMO cellular assay (Figure 1D source data)): 4.96% | inhibition at 0.1 µM ([2]; HEK293, conc 0.1 μM, duplicates, read-out: inhibition rate, Rat-KMO cellular assay (Figure 1D source data)): 0.969% | inhibition at 0.3 µM ([2]; HEK293, conc 0.3 μM, duplicates, read-out: inhibition rate, Rat-KMO cellular assay (Figure 1D source data)): 4.27% | inhibition at 3 µM ([2]; HEK293, conc 3 μM, duplicates, read-out: inhibition rate, Rat-KMO cellular assay (Figure 1D source data)): 20.1% | inhibition at 10 µM ([2]; HEK293, conc 10 μM, duplicates, read-out: inhibition rate, Rat-KMO cellular assay (Figure 1D source data)): 58.4% | inhibition at 30 µM ([2]; HEK293, conc 30 μM, duplicates, read-out: inhibition rate, Rat-KMO cellular assay (Figure 1D source data)): 87.7% | pIC50 ([2]; HEK293 cells expressing rat KMO, LC/MS): 5.14 | inhibition rate, Rat-KMO cellular assay (Figure 1D source data) ([2]; conc 0.03 μM, duplicates): 3.155% | inhibition rate, Rat-KMO cellular assay (Figure 1D source data) ([2]; conc 0.1 μM, duplicates): 1.853% | inhibition rate, Rat-KMO cellular assay (Figure 1D source data) ([2]; conc 0.3 μM, duplicates): 6.904% | inhibition rate, Rat-KMO cellular assay (Figure 1D source data) ([2]; conc 3 μM, duplicates): 21.339% | inhibition rate, Rat-KMO cellular assay (Figure 1D source data) ([2]; conc 10 μM, duplicates): 59.197% | inhibition rate, Rat-KMO cellular assay (Figure 1D source data) ([2]; conc 30 μM, duplicates): 87.499%
Compound: Cc1cnn(-c2cccc(C(=O)O)c2)c1-c1ccccc1 [Compound 1]
